Reference: patent US8227491B2, “5-(3,4-dichloro-phenyl)-N-(2-hydroxy-cyclohexyl)-6-(2,2,2-trifluoro-ethoxy)-nicotinamide and salts thereof” (Hoffmann-La Roche Inc., priority 2009, dated 2012)

Columns and labels:
[1] = target: T1, human cannabis CB1 receptor (Homo sapiens, UniProt P21554); test: CB1 receptor affinity, [3H]-CP-55,940 radioligand binding on HEK cell membranes; conditions: Ki calculated from IC50 (Cheng-Prusoff)
T1 construct: expressed in transfected cells; host or cells: human embryonic kidney (HEK) cells, Semliki Forest Virus system, membrane preparations
Protocol: (§1) The affinity of the compounds of the invention for cannabinoid receptors was determined using membrane preparations of human embryonic kidney (HEK) cells in which the human cannabis CB1 receptor is transiently transfected using the Semliki Forest Virus system in conjunction with [3H]-CP-55,940 as radioligand. After incubation of freshly prepared cell membrane preparation with the [3H]-ligand, with or without addition of compounds of the invention, separation of bound and free ligand was performed by filtration over glass fiber filters. Radioactivity on the filter was measured by scintillation counting.
(§2) Ki values were calculated from the IC50 using the Cheng-Prusoff equation.

HDL cholesterol levels = test: Effects on plasma lipid levels in hamsters; assay type: in vivo; conditions: male hamsters, 30 mg/kg p.o. once daily for five days, blood 2 hours after final treatment, 4 hour-fasted
Protocol: Efficacy of compounds in modulating plasma lipid levels was determined in hamsters after 5 days of daily administration of compounds. Male hamsters of 6-8 weeks of age were used in the studies. After one week of acclimation, blood samples were collected from 4 hour-fasted animals for plasma lipid determination. Animals were then assigned to treatment groups based on HDL-cholesterol levels. Compounds were administered by gavage, once daily for five days. Control animals received vehicle alone. Blood was collected on day five from 4 hour-fasted hamsters, 2 hours after a final treatment, for plasma lipid analysis. Total cholesterol, HDL-cholesterol, LDL-cholesterol, and triglycerides were determined using colorimetric enzymatic assays (Roche Diagnostic GmbH, Mannheim, Germany). HDL-cholesterol was also determined after selective precipitation of HDL from plasma by standard procedures.

[2] = target: T2, human cannabis CB2 receptor (Homo sapiens, UniProt P34972); test: CB2 receptor affinity, [3H]-CP-55,940 radioligand binding on HEK cell membranes; conditions: Ki calculated from IC50 (Cheng-Prusoff)
T2 construct: expressed in transfected cells; host or cells: human embryonic kidney (HEK) cells, Semliki Forest Virus system, membrane preparations
Protocol: as §1, with “cannabinoid CB2” for “cannabinoid”, “CB2” for “CB1”
as §2

T2 sequence (P34972 whole entry): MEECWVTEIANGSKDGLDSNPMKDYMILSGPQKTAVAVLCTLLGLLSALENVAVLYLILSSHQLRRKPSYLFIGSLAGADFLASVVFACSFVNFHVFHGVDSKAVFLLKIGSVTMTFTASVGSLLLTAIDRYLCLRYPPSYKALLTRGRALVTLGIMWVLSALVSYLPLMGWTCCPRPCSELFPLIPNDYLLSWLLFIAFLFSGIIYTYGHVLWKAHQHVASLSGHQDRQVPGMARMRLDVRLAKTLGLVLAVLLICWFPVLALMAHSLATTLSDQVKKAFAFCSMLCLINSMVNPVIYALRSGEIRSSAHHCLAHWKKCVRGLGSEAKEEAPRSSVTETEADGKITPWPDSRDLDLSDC
T1 sequence (P21554 whole entry): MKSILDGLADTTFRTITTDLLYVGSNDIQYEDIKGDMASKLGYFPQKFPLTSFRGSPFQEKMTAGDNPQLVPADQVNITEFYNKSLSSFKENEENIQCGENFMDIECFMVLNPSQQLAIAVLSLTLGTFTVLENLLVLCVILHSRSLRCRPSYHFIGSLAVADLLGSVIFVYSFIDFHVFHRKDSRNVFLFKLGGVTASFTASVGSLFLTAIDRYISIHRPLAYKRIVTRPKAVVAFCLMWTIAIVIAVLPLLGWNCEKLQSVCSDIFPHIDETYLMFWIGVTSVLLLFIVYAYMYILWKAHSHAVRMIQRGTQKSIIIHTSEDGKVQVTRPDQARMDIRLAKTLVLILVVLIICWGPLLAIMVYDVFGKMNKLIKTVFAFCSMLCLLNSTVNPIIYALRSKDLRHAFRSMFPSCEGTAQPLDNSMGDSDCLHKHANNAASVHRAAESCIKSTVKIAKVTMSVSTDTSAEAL

SMILES	Ki [1]	HDL Cholesterol levels [as % compared to control] @ 30 mg/kg p.o. of compound (HDL cholesterol levels)	Ki [2]
O=C(N[C@H]1CCCC[C@H]1O)c1cnc(OCC(F)(F)F)c(-c2ccc(Cl)c(Cl)c2)c1 [5-(3,4-Dichloro-phenyl)-N-((1S,2R)-2-hydroxy-cyclohexyl)-6-(2,2,2-trifluoro-ethoxy)-nicotinamide]	> 10 µM	+121.9 ± 21.0%	> 10 µM
O=C(N[C@@H]1CCCC[C@H]1O)c1cnc(OCC(F)(F)F)c(-c2ccc(Cl)c(Cl)c2)c1 [5-(3,4-dichloro-phenyl)-N-((1R,2R)-2-hydroxy-cyclohexyl)-6-(2,2,2-trifluoro-ethoxy)-nicotinamide]	1.3 µM	+77.9 ± 11.1%	> 10 µM
O=C(N[C@@H]1CCCC[C@H]1O)c1cnc(OCC(F)(F)F)c(-c2ccc(Cl)cc2)c1 [5-(4-Chloro-phenyl)-N-((1R,2R)-2-hydroxy-cyclohexyl)-6-(2,2,2-trifluoro-ethoxy)-nicotinamide, reference compound]	0.028 µM	+103.8 ± 14.7%	> 10 µM
